We go through three molecules from patent US20250312332A1, “TREATMENT OF MUSCLE FIBROSIS” (University of Newcastle upon Tyne, priority 2022, published 2025).

Where “and” joins values, the source holds several entries; their conditions need not be identical. Equal values may be shown once. Entries after “also recorded” stand apart in the source; their conditions may differ. Read-outs that look alike come from different tables or passages of the source.

Series [1] has as its system dba/2J-mdx mice. The series can be described thus: Quadriceps histology and immunofluorescence in dba/2J-mdx mice. The series is classed as in vivo, mouse.
In series [2] the test system is dba/2J-mdx mice. Nature of the series: Fasudil treatment of dba/2J-mdx mice: behaviour and weight. As to conditions: mouse, in vivo.
In series [3] the test system is FAPs. The series is classed as cell-based, human.
In series [4] the test system is myosin light chain 2 (p-MLC2). The series is classed as cell-based, human.
Series [5] deals with FAPs. The series is classed as cell-based, human. Particulars: for increase in FAPs migration: vs untreated FAPs.
The test system of series [6] is FAPs. The series is classed as cell-based, human. This is another data set of the same source.
In series [7] the test system is RhoA pathway. The series can be described thus: RhoA downstream effectors in quadriceps of dba/2J-mdx mice (qPCR, IF). The series is classed as in vivo, mouse. On the technique in general: In qPCR the cycle at which signal appears reflects the starting amount.
In series [8] the test system is dba/2J-mdx mice. Nature of the series: Grip strength test in dba/2J-mdx mice. As to conditions: after six weeks of treatment, vs non-treated mice. The series is classed as in vivo, mouse.
Series [9] deals with FAPs. The series is classed as cell-based, human. As to conditions: for increase in FAPs proliferation: vs untreated FAPs.
Series [10] deals with dba/2J-mdx mice. The series can be described thus: Flow cytometry of muscle macrophages in dba/2J-mdx mice. The series is classed as in vivo, mouse.
In series [11] the test system is FAPs.
Series [12] has as its system dba/2J-mdx mice. Nature of the series: Cytokine array of quadriceps in dba/2J-mdx mice. The series is classed as in vivo, mouse. As to conditions: treated vs non-treated mice.
Series [13] deals with MLCK. Particulars: read-out: IC50 for MLCK; cited from earlier work.
Series [14] relates to PKA. As to conditions: cited from earlier work.
Series [15] relates to CaM kinase II. Particulars: cited from earlier work.
The subject of series [16] is RhoA-GTP. The series is classed as cell-based, human. Particulars: DMD-FAPs, PDGF-AA 50 ng/ml 20 min, vs untreated FAPs.

Usually IC50 stands for the point on the concentration scale where inhibition reaches its midpoint.

Consider `O=S(=O)(c1cccc2cnccc12)N1CCCNCC1` [Fasudil, 5-(1,4-diazepan-1-ylsulfonyl)isoquinoline], for which the “reduction in collagen-I area in the quadriceps” value in series [1] (100 mg/kg/day orally 6 weeks) is recorded as 23%. For the same molecule, in series [1] (treated vs non-treated mice), the myofiber size entry is “significant increase”; the “neutrophil population in quadriceps” value is given as “trend towards a reduction”; the “number of T and B cells in quadriceps” value is listed as “no changes”. In addition, in series [1] (treated vs non-treated, not significant), the “decrease in the PDGFRα area (number of FAPs) in quadriceps” value worked out at 42%. The “reduction of quadriceps area stained with F4/80 (macrophages)” value in series [1] (treated vs untreated mice) is reported as 74%. In series [2], the “behaviour during the treatment period (adverse effects)” value is reported as “did not experience any change in their behaviour” and the “body weight, treated vs untreated mice” value is “decrease in weight”. In addition, the “release of collagen-I to the culture medium” value in series [3] is given as “reversed”. Further, the “effect on PDGF-AA-induced MLC2 phosphorylation” value in series [4] is on record as “reversed”. The “reduction of migration rate” value in series [5] is 2.43 fold and 4 fold. Besides, the “polymerization of intracellular actin filaments” value in series [6] is “impinged”. For the same molecule, the “RhoA pathway downstream effector targets (ROCK2, LIMK2, FHOD1)” value in [7] (100 mg/kg/day orally 6 weeks) is listed as “inhibited RhoA pathway”. In [7] (treated vs untreated mice), the “protein expression of LIMK2” value is “significantly reduced” and the “protein expression of MLC2” value was “significantly reduced”. Also, in [8], the “increase in forelimb strength” value came out at 1.76 fold. For the same molecule, in series [9], the “decrease in proliferation rate” value is on record as 2.6 fold and the proliferation inhibition result was “lack of proliferation inhibition”. The “decrease in the number of F4/80 positive cells” value in series [10] (flow cytometry, treated vs non-treated mice) amounted to 18.3%. The “reduction in the expression levels of CD163 marker in macrophages” value in [10] (skeletal muscles of treated mice) was 31%. Also, the “reduction in the expression levels of CD206 marker in macrophages” value in [10] (treated mice) was 18%. Also, in series [10] (treated vs non-treated mice), the “expression levels or number of CD209 cells (M2 macrophages)” value is recorded as “did not observe any difference”; the “percentage of positive cells or expression of CD80 and DR (M1 markers)” value is “did not observe changes”. Moreover, in series [10] (vs non-treated mice), the “lower number of CD163+ cells” value worked out at 3% and the “lower number of CD206+ cells” value came out at 10%. For the same molecule, the cell viability result in series [11] is recorded as “did not affect cell viability; also recorded: neither C3-exoenzyme nor fasudil had any effect on cell viability”. The “TNFα, IL-4, IL-17, CXCL1, CXCL2, CXCL10, CCL2, CCL3 or CCL17 cytokine levels” value in [12] was “reduction”.
As for “myosin light chain kinase inhibitor peptide, sequence RKKYKYRRK (SEQ ID NO:1) (MLCK inhibitor peptide 18) [MLCK18]”, in [13], the IC50 was 50 nM. Moreover, in series [14], the “inhibition of PKA” value is reported as “without inhibiting PKA”. Further, in series [15], the “selectivity vs CaM kinase II” value is 4000 fold.
In the case of PDGF-AA, in [3] (4 days treatment), the “release of collagen-I to the culture medium” value was “increased non-significantly”. Further, the “increase in MLC2 phosphorylation” value in series [4] (DMD-FAPs treated with PDGF-AA) amounted to 2.3 fold. Besides, the “increase in FAPs migration” value in series [5] (48 hours) was 2.48 fold; in series [5] (72 hours), 3.37 fold. In series [6], the “polymerization of intracellular actin filaments” value is “induced polymerization”. Moreover, in series [16], the “increase in the RhoA-GTP levels” value amounted to 1.88 fold. The figures for the “increase in FAPs proliferation” value in series [9] (48 hours) and in [9] (72 hours) were 3.6 fold and 6 fold, respectively. In addition, the cell viability entry in series [11] is “did not affect cell viability”.
